US12448369B2 (Edgewise Therapeutics, Inc., priority 2023, dated 2025)

Assays:
[1] = tested on: Rabbit Psoas myofibrils (skeletal myosin ATPase); assay: Myofibril ATPase assay, rabbit psoas (skeletal) myofibrils; assay type: biochemical; conditions: rabbit psoas myofibrils
Summary of the method: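 Readout: A340 decline from NADH oxidation, PK/LDH-coupled to ADP release; kinetic reads over 75 min. Buffer: pCa (PIPES, CaCl2, EGTA), pH 7.0. Linear-regression slopes vs vehicle, 4PL fit; reported as concentration giving 75% (Y75) or 125% (Y125) of vehicle activity.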

[2] = tested on: Porcine atria myofibrils (atrial myosin ATPase); assay: Myofibril ATPase assay, porcine atria myofibrils; assay type: biochemical; conditions: porcine atria myofibrils
Summary of the method: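 Coupled PK-LDH readout, NADH loss at 340 nm, kinetic 75 min. Porcine atria myofibrils, pCa buffer (PIPES/CaCl2/EGTA, pH 7.0). Slopes (mAU/min) normalized to vehicle = 100%, 4-parameter fit; Y75 or Y125 reported.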

[3] = target: T1, Porcine ventricle myofibrils (ventricular myosin ATPase) (Sus scrofa, UniProt P79293); assay: Myofibril ATPase assay, porcine ventricle myofibrils; assay type: biochemical, porcine (Yucatan minipigs); conditions: porcine ventricle myofibrils
T1 construct: Myofibrils from porcine cardiac muscle was isolated from the left ventricle of Yucatan minipigs; tissue Exemplar Genetics; host or cells: left ventricle of Yucatan minipigs, myofibrils prepared in house
T1 sequence (P79293 whole entry): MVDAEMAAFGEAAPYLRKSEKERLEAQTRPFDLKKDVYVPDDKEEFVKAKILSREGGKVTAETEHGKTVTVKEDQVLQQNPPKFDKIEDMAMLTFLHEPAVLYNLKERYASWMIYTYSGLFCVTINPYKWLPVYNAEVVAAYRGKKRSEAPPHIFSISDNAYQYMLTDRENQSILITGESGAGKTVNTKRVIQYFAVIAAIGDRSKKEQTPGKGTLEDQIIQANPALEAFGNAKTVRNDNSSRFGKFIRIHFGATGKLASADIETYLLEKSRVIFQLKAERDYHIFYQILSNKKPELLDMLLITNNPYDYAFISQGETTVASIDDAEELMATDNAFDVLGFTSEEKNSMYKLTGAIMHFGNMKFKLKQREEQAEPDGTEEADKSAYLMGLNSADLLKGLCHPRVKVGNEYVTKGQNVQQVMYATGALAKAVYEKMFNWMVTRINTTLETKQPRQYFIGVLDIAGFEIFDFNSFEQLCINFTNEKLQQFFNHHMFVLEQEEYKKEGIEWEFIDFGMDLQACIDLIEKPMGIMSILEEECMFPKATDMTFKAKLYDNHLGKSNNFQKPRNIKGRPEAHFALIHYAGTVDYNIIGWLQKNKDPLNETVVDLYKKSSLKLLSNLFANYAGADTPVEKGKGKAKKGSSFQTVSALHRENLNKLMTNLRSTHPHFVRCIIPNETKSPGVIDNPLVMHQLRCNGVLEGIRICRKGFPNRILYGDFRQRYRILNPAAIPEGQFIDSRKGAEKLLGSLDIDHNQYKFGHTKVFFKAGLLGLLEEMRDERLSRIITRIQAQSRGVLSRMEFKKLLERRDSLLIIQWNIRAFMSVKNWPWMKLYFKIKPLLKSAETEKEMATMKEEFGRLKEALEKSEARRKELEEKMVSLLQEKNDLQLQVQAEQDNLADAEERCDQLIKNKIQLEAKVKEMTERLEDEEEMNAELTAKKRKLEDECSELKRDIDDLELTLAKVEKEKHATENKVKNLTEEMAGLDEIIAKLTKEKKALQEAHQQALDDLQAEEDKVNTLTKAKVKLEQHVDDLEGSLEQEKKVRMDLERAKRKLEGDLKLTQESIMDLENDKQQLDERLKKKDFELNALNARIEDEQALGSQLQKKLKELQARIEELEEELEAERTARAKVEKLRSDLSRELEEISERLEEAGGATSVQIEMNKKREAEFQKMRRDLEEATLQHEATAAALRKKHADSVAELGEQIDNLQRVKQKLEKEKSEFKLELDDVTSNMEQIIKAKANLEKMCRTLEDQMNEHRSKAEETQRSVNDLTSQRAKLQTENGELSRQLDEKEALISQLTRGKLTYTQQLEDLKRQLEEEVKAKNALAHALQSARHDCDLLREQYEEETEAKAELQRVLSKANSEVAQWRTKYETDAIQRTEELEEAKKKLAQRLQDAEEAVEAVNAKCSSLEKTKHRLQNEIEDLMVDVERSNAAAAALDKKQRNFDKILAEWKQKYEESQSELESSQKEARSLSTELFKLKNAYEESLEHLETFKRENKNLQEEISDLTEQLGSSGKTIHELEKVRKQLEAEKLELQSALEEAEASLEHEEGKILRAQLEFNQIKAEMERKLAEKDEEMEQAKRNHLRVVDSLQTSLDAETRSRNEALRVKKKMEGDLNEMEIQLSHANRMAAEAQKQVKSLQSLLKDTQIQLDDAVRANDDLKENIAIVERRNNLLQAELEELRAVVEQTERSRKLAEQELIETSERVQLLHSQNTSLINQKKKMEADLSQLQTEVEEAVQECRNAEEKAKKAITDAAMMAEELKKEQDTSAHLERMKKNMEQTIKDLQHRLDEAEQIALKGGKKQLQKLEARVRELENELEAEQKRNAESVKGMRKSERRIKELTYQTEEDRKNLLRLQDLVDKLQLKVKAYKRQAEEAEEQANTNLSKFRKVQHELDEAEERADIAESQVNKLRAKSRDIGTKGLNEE
Summary of the method: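 In a coupled enzyme format, ADP from myofibril ATPase drives NADH oxidation, monitored kinetically at 340 nm for 75 min using minipig ventricle myofibrils. Effective concentrations giving 25% loss or gain of activity relative to vehicle were calculated from 4-parameter fits.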

[4] = Y75 value (75% activity relative to no compound)

| SMILES | Skeletal EC25 ([1]; Y75 value (no ‡ mark)) [µM] | Atrial EC25 ([2]; Y75 value (no ‡ mark)) [µM] | Ventricular EC25 ([3]; Y75 value (no ‡ mark)) [µM] | Skeletal EC25 ([1]; Y75 value) [µM] | Atrial EC25 [2, 4] [µM] | Ventricular EC25 ([3]; Y75 value) [µM] |
| --- | --- | --- | --- | --- | --- | --- |
| C[C@@H](NC(=O)C1(c2cc3c(F)c(F)ccc3[nH]c2=O)CC1)c1ccc(F)cc1F [compound 4813] | 0.91 | 0.37 | 100.00 | – | – | – |
| Cc1nccc2[nH]c(=O)c(CC(=O)N[C@H](C)c3ccccc3O)c(C)c12 (single isomer, unassigned) [compound 320] | – | – | – | 34.09 | 100.00 | 100.00 |
| Cc1c(CC(=O)N[C@H](CO)c2ccc(C#N)cc2F)c(=O)[nH]c2ccc(C(F)(F)F)nc12 [compound 218] | – | – | – | 14.86 | 100.00 | 100.00 |
| Cc1ccc2[nH]c(=O)c(CC(=O)N[C@H](C)c3ncc(C#N)cc3F)cc2n1 [compound 462] | – | – | – | 100.00 | 65.72 | 100.00 |
| Cc1c(C(F)(F)C(=O)N[C@H]2CCc3cc(C#N)cnc32)c(=O)[nH]c2ccc(F)cc12 (single isomer, unassigned) [compound 2516] | 0.67 | 0.79 | 100.00 | – | – | – |
| Cc1nccc2[nH]c(=O)c(CC(=O)NC[C@@H](CO)c3ccccc3)c(C)c12 [compound 494] | – | – | – | 100.00 | 100.00 | 100.00 |
| Cc1nccc2[nH]c(=O)c(C3(C(=O)N[C@@H](C)c4ncc(C#N)cc4F)CC3)c(C)c12 (single isomer, unassigned) [compound 3507] | – | – | – | 100.00 | 2.61 | 18.82 |
| C[C@H](NC(=O)Cc1c(Cl)c2cnccc2[nH]c1=O)c1ccc(C#N)cn1 [compound 454] | – | – | – | 4.25 | 7.21 | 52.30 |
| Cc1nccc2[nH]c(=O)c(CC(=O)N[C@H]3CNc4cc(F)cc(F)c43)c(C)c12 (single isomer, unassigned) [compound 182] | – | – | – | 1.76 | 8.60 | 35.91 |
| C[C@@H](NC(=O)C1(c2cc3c(F)c(F)ccc3[nH]c2=O)CC1)c1ncc(C#N)cn1 (single isomer, unassigned) [compound 2549] | 7.56 | 0.97 | 100.00 | – | – | – |
| Cc1c(CC(=O)N[C@@H](CO)c2ccc(C#N)cc2F)c(=O)[nH]c2ccnc(C#N)c12 (single isomer, unassigned) [compound 242] | – | – | – | 0.02 | 0.09 | 0.52 |
| Cc1c(CC(=O)N[C@H](C)c2ncc(C#N)cc2F)c(=O)[nH]c2ccc(F)c(C(F)(F)F)c12 [compound 21] | 0.04 | 0.03 | 0.13 | – | – | – |
| Cc1c(F)ccc2[nH]c(=O)c(CC(=O)N[C@@H](C)c3ccc(C#N)cc3F)c(O)c12 [compound 20] | 0.51 | 0.21 | 0.31 | – | – | – |
| Cc1c(CC(=O)N[C@@H](C)c2ccc(C#N)cc2F)c(=O)[nH]c2ccc(C(F)(F)F)nc12 (single isomer, unassigned) [compound 209] | – | – | – | 0.01 | 0.03 | 0.14 |
| Cc1nccc2[nH]c(=O)c(CC(=O)N[C@@H](CCO)c3ccc(F)cc3F)c(C)c12 (single isomer, unassigned) [compound 342] | – | – | – | 11.14 | 3.65 | 52.00 |
| C[C@H](NC(=O)[C@H](C)c1cc2nc(C#N)ccc2[nH]c1=O)c1ccc(F)cc1F (single isomer, unassigned) [compound 257] | – | – | – | 100.00 | 100.00 | 100.00 |
| C[C@H](NC(=O)Cc1c(C2CC2)c2cc(F)ccc2[nH]c1=O)c1ccc(C#N)cn1 [compound 56] | 0.12 | 2.47 | 3.98 | – | – | – |

| SMILES | Skeletal EC25 ([1]; Y75 value (no ‡ mark)) [µM] | Atrial EC25 ([2]; Y75 value (no ‡ mark)) [µM] | Ventricular EC25 ([3]; Y75 value (no ‡ mark)) [µM] | Skeletal EC25 ([1]; Y75 value) [µM] | Atrial EC25 [2, 4] [µM] | Ventricular EC25 ([3]; Y75 value) [µM] |
| --- | --- | --- | --- | --- | --- | --- |
| C[C@H](NC(=O)Cc1cc2c(OCC(F)(F)F)nccc2[nH]c1=O)c1ccc(F)cc1F [compound 436] | – | – | – | 12.92 | 100.00 | 100.00 |
| C[C@H](NC(=O)C(F)(F)c1cc2cc(F)ccc2[nH]c1=O)c1cc(C#N)ccn1 (single isomer, unassigned) [compound 2574] | 100.00 | 100.00 | 100.00 | – | – | – |
| Cc1c(CC(=O)N[C@H](C)c2ncc(C#N)cn2)c(=O)[nH]c2ccc(F)cc12 [compound 1070] | 2.50 | 0.22 | 1.72 | – | – | – |
| C[C@H](NC(=O)[C@@H](C)c1cc2nc(F)ccc2[nH]c1=O)c1ccc(F)cc1F (single isomer, unassigned) [compound 364] | – | – | – | 0.44 | 1.16 | 4.71 |
| Cc1nc(C#N)cnc1[C@@H](C)NC(=O)Cc1c(C)c2cc(F)ccc2[nH]c1=O [compound 1068] | 0.12 | 0.07 | 0.06 | – | – | – |
| C[C@@H](NC(=O)Cc1cc2cc(F)ccc2[nH]c1=O)c1ncc(C#N)cn1 (single isomer, unassigned) [compound 2029] | 3.21 | 1.26 | 18.01 | – | – | – |
| Cc1c(CC(=O)N[C@H](C)c2ccc(C#N)nn2)c(=O)[nH]c2ccc(F)c(C3CC3)c12 (single isomer, unassigned) [compound 2057] | 0.27 | 0.65 | 0.94 | – | – | – |
| COc1nccc2[nH]c(=O)c(CC(=O)N[C@@H](C)c3ccc(F)cc3F)cc12 [compound 434] | – | – | – | 0.13 | 0.65 | 3.84 |
| Cc1c(CC(=O)N[C@H](C)c2cnc(C#N)cn2)c(=O)[nH]c2ccc(F)cc12 [compound 1108] | 0.37 | 6.47 | 1.44 | – | – | – |
| Cc1nc([C@H](C)NC(=O)Cc2c(C)c3c(C)nccc3[nH]c2=O)ncc1C#N [compound 479] | – | – | – | 100.00 | 100.00 | 100.00 |
| C[C@@H](NC(=O)Cc1c(C2CC2)c2cc(F)ccc2[nH]c1=O)c1ccc(C#N)cn1 [compound 55] | 1.20 | 1.29 | 100.00 | – | – | – |
| Cc1c(C(C)C(=O)N[C@@H](C)c2ccc(F)cc2F)c(=O)[nH]c2ccncc12 (stereo partly drawn) [compound 440] | – | – | – | 2.78 | 34.65 | 100.00 |
| Cc1c(CC(=O)N[C@H]2COc3cc(F)cc(F)c32)c(=O)[nH]c2ccnc(C#N)c12 (single isomer, unassigned) [compound 274] | – | – | – | 0.02 | 0.04 | 0.13 |
| C[C@H](NC(=O)Cc1cc2ccccc2[nH]c1=O)c1ccc(F)cc1F [compound 137] | 0.19 | 1.12 | 3.33 | – | – | – |
| Cc1nccc2[nH]c(=O)c(CC(=O)N[C@@H](C)c3ncccc3F)c(C)c12 (single isomer, unassigned) [compound 268] | – | – | – | 100.00 | 100.00 | 100.00 |
| Cc1c(CC(=O)N[C@H](C)c2ncc(F)cc2F)c(=O)[nH]c2ccc(F)c(C(F)(F)F)c12 [compound 9] | 0.65 | 3.29 | 0.92 | – | – | – |
